Source: patent US5430063A, “Phenoxyphenyl derivatives, compositions thereof and methods for their use” (Akzo N.V., priority 1991, dated 1995)

Assay: biological half-life for sleep-wake behaviour in rats
Conditions: rat, in vivo
Description: The biological half-lives of the phenoxyphenyl derivatives were determined for the sleep-wake behaviour in rats and compared with the half-lives of the prior art compounds.
Compound `CN(C)Cc1ccccc1Oc1ccc(Cl)cc1.O=C(O)/C=C\C(=O)O` [Example 4, 2-(4-chlorophenoxy)-N,N-dimethylbenzenemethanamine (Z)-2-butenedioate] has a half-life of 60 min. Work on `Clc1ccc(Oc2ccccc2C2=NCCN2)cc1Cl.O=C(O)/C=C\C(=O)O` [Example 6a, 2-[2-(3,4-dichlorophenoxy)phenyl]-4,5-dihydro-1H-imidazole (Z)-2-butenedioate] yielded a half-life of 90 to 150 min. For `COc1ccc(Sc2ccccc2CN)cc1` [2-[(4-methoxyphenyl)thio]-benzenemethanamine, reference compound], the half-life was < 30 min. `NCc1ccccc1Sc1ccccc1` [2-(phenylthio)benzenemethanamine, reference compound] gave a half-life of 30 min.

Same assay, conditions: rat, in vivo; biological half-life, sleep-wake behaviour in rats; read-out: half-life (converted)
Work on `Cl.NCc1ccccc1Oc1ccc(Cl)c(Cl)c1` [Example 2, 2-(3,4-dichlorophenoxy)benzenemethanamine hydrochloride] yielded a half-life of 150 min. In the case of `Clc1ccc(Oc2ccccc2C2=NCCN2)cc1.O=C(O)/C=C\C(=O)O` [Example 5, 2-[2-(4-chlorophenoxy)phenyl]-4,5-dihydro-1H-imidazole (Z)-2-butenedioate], the half-life is reported as 180 min. For `Cl.NCc1ccccc1Oc1ccc(Cl)cc1` [Example 1, 2-(4-chlorophenoxy)benzenemethanamine hydrochloride], the half-life was 60 to 150 min.
